PMC10257182, “Discovery of senolytics using machine learning” (Nature Communications, 2023)
Read-outs that look alike come from different tables or passages of the source.

Tested on: non-senescent control IMR90 ER:RAS cells
Test: Nuclei count (Hoechst, high content imaging) senolytic assay, OIS model, non-senescent control cells
Assay type: cell-based, human
Details: Homo sapiens; for viability at 4.677 µM: log (dose) [M] -5.33, 72 h; for viability at 4.68 µM: log (dose) [M] -5.33
Description: To test for senolytic activity, we compared the effect of each compound on the total cell number (automated high content image-based analysis of total number of nuclei per well) in non-senescent and senescent IMR90 ER:RAS cultures treated with the top hits from the computational screen (Figs. 2e and 3a–d and Supplementary Fig. 4a–c). The drop in cell number compared to untreated controls is indicated by the nuclei count and reflects cell death[13],[15]. As positive control, we employed ouabain, a cardiac glycoside with well characterised senolytic activity.
We performed experimental validation of the compounds with z-score > 8 (Fig. 2e). […] We employed two cellular models of senescence: one of OIS and a second one of TIS. For the OIS case, we utilised IMR90 ER:RAS cells with 4-OHT at 100 nM. […] For the TIS model, we used A549 cells with etoposide at 100 μM. The exposure of the cells to etoposide lasted 48 h, after which period the cells were cultivated for a further three days with normal media.
IMR90 (CCL-186) human foetal lung fibroblasts and A549 (CCL-185) human lung adenocarcinoma cells were obtained from the American Type Culture Collection (ATCC, Manassas, VA). The cell lines were confirmed to be mycoplasma negative (Lonza MycoAlert, cat #LT07-118). IMR90 ER:RAS is a derivative of IMR90 cells expressing a switchable version of oncogenic H-Ras[84]. IMR90 ER:RAS and A549 cells were maintained in Dulbecco’s Modified Eagle Medium (DMEM, ThermoFisher) supplemented with foetal bovine serum (10%), L-glutamine (2 mM, ThermoFisher), and antibiotic-antimycotic solution (1%, ThermoFisher) and incubated under standard tissue culture conditions (37 °C and 5% CO2). For induction of the senescent phenotype, IMR90-ER:RAS cells were cultured in hydroxytamoxifen (4-OHT) (Sigma) added media at 100 nM final concentration. IMR90 were kept in culture for over 27 passages for replicative senescence. Cells were tested for mycoplasma on a regular basis.
Cells were seeded (50 μL per well) into 384-well plates (IMR90 ER:RAS cells in Nunc Optical Bottom Polybase Microplates [#142761, Thermo Scientific, Rochester, NY] and A549 cells in CELLSTAR Cell Culture Microplates [#781091, Greiner Bio-One, Kremsmünster, Austria]). Cells were incubated under standard tissue culture conditions for 24 h before the addition of compounds. Passage 14 IMR90 ER:RAS cells were seeded at 1300 cells per well in the control condition, and at 1600 cells per well in the senescent case. Passage 34 A549 cells were seeded at 7000 cells per well in the control condition, and at 10,000 cells per well in the senescent case.
Dose response plates were prepared with a DMSO control and a 10-point […] concentration range, and added to the compounds using a D300e digital dispenser (Tecan Trading AG, Switzerland) at a final concentration of between 10 μM and 10 nM. Every screened condition was carried out in triplicate. After 72 h of incubation with exposure to the compounds, cells were fixed by the addition of an equal volume of formaldehyde (8%, 50 μL; #BP531-500, Fisher Bioreagents, Fisher Scientific, Loughborough, Leicestershire) to the existing media, incubated at room temperature (30 min), and washed three times in phosphate-buffered saline (PBS). Cells were then permeabilised in Triton-X100 (0.1%, 50 μL) and incubated at room temperature (30 min) followed by three more washes with PBS.
Cells were stained with Hoechst 33342 for nuclei count (excitation/emission wavelength at 387/447 […], DAPI channel, original concentration at 10 mg/ml, final concentration at 2 μg/ml; H1399, Molecular Probes, Eugene, OR). The staining solution was prepared in bovine serum albumin solution (10%). The staining solution was added to each well (30 μL) and incubated in the dark at room temperature (30 min), followed by three washes with PBS and no final aspiration. Plates were foil sealed.

[1] = IMR-90, 72 h, Control, log (dose) [M] -5, 72 h, mean n=3 (Fig 3C), read-out: Mean % Cell Survival
[2] = IMR-90, 72 h, Control, mean n=3 (Fig 3C), read-out: Mean % Cell Survival
[3] = IMR-90, 72 h, Control, log (dose) [M] -5.66, 72 h, mean n=3 (Fig 3C), read-out: Mean % Cell Survival
[4] = IMR-90, 72 h, Control, log (dose) [M] -6, 72 h, mean n=3 (Fig 3C), read-out: Mean % Cell Survival
[5] = IMR-90, 72 h, Control, log (dose) [M] -6.33, 72 h, mean n=3 (Fig 3C), read-out: Mean % Cell Survival
[6] = IMR-90, 72 h, Control, log (dose) [M] -6.66, 72 h, mean n=3 (Fig 3C), read-out: Mean % Cell Survival
[7] = IMR-90, 72 h, Control, log (dose) [M] -7, 72 h, mean n=3 (Fig 3C), read-out: Mean % Cell Survival
[8] = IMR-90, 72 h, Control, log (dose) [M] -7.33, 72 h, mean n=3 (Fig 3C), read-out: Mean % Cell Survival
[9] = IMR-90, 72 h, Control, log (dose) [M] -7.66, 72 h, mean n=3 (Fig 3C), read-out: Mean % Cell Survival
[10] = IMR-90, 72 h, Control, log (dose) [M] -8, 72 h, mean n=3 (Fig 3C), read-out: Mean % Cell Survival
[11] = IMR-90, Control cells, log (dose) [M] -7, individual replicates, SUP FIG 4C, read-out: % Cell Survival
[12] = IMR-90, Control, read-out: % Cell Survival
[13] = IMR-90, Control, log (dose) [M] -5.66, read-out: % Cell Survival
[14] = IMR-90, Control, log (dose) [M] -6, read-out: % Cell Survival
[15] = IMR-90, Control, log (dose) [M] -6.33, read-out: % Cell Survival
[16] = IMR-90, Control, log (dose) [M] -6.66, read-out: % Cell Survival
[17] = IMR-90, Control, log (dose) [M] -7, read-out: % Cell Survival
[18] = IMR-90, Control, log (dose) [M] -7.33, read-out: % Cell Survival
[19] = IMR-90, Control, log (dose) [M] -7.66, read-out: % Cell Survival
[20] = IMR-90, Control, log (dose) [M] -8, read-out: % Cell Survival

SMILES | viability at 10 µM [1] [%] | viability at 4.677 µM [2] [%] | viability at 2.188 µM [3] [%] | viability at 1 µM [4] [%] | viability at 0.4677 µM [5] [%] | viability at 0.2188 µM [6] [%] | viability at 0.1 µM [7] [%] | viability at 0.04677 µM [8] [%] | viability at 0.02188 µM [9] [%] | viability at 0.01 µM [10] [%] | viability at 0.1 µM [11] [%] | viability at 4.68 µM [12] [%] | viability at 2.19 µM [13] [%] | viability at 1 µM [14] [%] | viability at 0.468 µM [15] [%] | viability at 0.219 µM [16] [%] | viability at 0.1 µM [17] [%] | viability at 0.04677 µM [18] [%] | viability at 0.0219 µM [19] [%] | viability at 0.01 µM [20] [%] | other results
Cc1c(-c2c(F)cc(C(N)=O)c3[nH]c4c(c23)CC[C@H](C(C)(C)O)C4)cccc1-n1c(=O)c2cccc(F)c2n(C)c1=O [BMS 986142] | 97.1 | 136 | 117 | 115 | 97.6 | 107 | 108 | 105 | 114 | 104 | 107 | 99.7 | 88.8 | 97.9 | 91.9 | 111 | 92.2 | 101 | 94.6 | 95.3 | viability at 10 µM (IMR-90, Control cells, log (dose) [M] -5, individual replicates, SUP FIG 4C, read-out: % Cell Survival): 104%; viability at 2.188 µM (IMR-90, Control cells, log (dose) [M] -5.66, individual replicates, SUP FIG 4C, read-out: % Cell Survival): 125%; viability at 1 µM (IMR-90, Control cells, log (dose) [M] -6, individual replicates, SUP FIG 4C, read-out: % Cell Survival): 119%; viability at 0.2188 µM (IMR-90, Control cells, log (dose) [M] -6.66, individual replicates, SUP FIG 4C, read-out: % Cell Survival): 108%; viability at 0.04677 µM (IMR-90, Control cells, log (dose) [M] -7.33, individual replicates, SUP FIG 4C, read-out: % Cell Survival): 108%; viability at 0.02188 µM (IMR-90, Control cells, log (dose) [M] -7.66, individual replicates, SUP FIG 4C, read-out: % Cell Survival): 116%; viability at 0.01 µM (IMR-90, Control cells, log (dose) [M] -8, individual replicates, SUP FIG 4C, read-out: % Cell Survival): 104%
O=c1oc2c(O)c(O)cc3c(=O)oc4c(O)c(O)cc1c4c23 [Ellagic acid, ellagic acid] | 108 | 92.9 | 111 | 105 | 109 | 111 | 102 | 107 | 112 | 104 | 103 | 122 | 120 | 123 | 120 | 122 | 130 | – | – | 115 | viability at 0.4677 µM (IMR-90, Control cells, log (dose) [M] -6.33, individual replicates, SUP FIG 4C, read-out: % Cell Survival): 118%; viability at 10 µM (IMR-90, Control, log (dose) [M] -5, read-out: % Cell Survival): 133%
CO[C@H]1C[C@@H]2CC[C@@H](C)[C@@](O)(O2)C(=O)C(=O)N2CCCC[C@H]2C(=O)O[C@H]([C@H](C)C[C@@H]2CC[C@@H](OCCO)[C@H](OC)C2)CC(=O)[C@H](C)/C=C(\C)[C@@H](O)[C@@H](OC)C(=O)[C@H](C)C[C@H](C)/C=C/C=C/C=C/1C [Everolimus, everolimus, reference compound] | 107 | 109 | 107 | 104 | 105 | 100 | 109 | 105 | 102 | 104 | – | 107 | 108 | 106 | 92.7 | 109 | 105 | 116 | 115 | 118 | –
